From ChEMBL document CHEMBL1201862, “PubChem BioAssay data set” (2004)
The source made the active and inactive calls.

How the values were obtained:
[1] = target: Voltage-dependent T-type calcium channel subunit alpha-1H (Homo sapiens, UniProt O95180); type: functional;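 further: channel activity triggered by adding a high calcium stimulation buffer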
Streptokinase A = target: T1, Streptokinase A (Streptococcus pyogenes serotype M1, UniProt P10520); assay: S. pyogenes streptokinase expression inhibitors, potency, dose response, plasminogen activation absorbance, OD405 (AID 1914); type: functional, Streptococcus pyogenes M1 GAS;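 further: secreted streptokinase activity via plasminogen activation per viability signal from cell pellet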
T1 sequence (P10520 whole entry): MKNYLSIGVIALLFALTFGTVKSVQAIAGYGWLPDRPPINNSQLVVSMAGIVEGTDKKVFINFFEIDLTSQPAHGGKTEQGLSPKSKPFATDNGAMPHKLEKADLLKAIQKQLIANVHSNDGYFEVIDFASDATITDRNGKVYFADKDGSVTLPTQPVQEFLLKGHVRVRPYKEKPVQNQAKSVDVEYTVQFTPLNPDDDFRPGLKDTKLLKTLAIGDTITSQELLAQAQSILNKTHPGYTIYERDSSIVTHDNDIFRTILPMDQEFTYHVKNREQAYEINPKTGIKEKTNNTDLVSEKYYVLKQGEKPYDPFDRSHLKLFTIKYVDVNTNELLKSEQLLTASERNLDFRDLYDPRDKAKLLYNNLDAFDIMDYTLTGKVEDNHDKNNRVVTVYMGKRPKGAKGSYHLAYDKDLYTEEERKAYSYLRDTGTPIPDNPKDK

Streptococcus = assay: Group A Streptococcus viability loss, dose response, counter-screen for streptokinase expression inhibitor project, luminescence, BacTiterGlo (AID 1915); type: functional, organism-based;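 further: potency for reduction of bacterial viability or growth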
[2] = test system: Streptococcus sp. 'group A'; assay: growth inhibition of control SK(-) GAS strain, dose response, counter-screen for streptokinase expression inhibitor project, luminescence, kanamycin, BacTiterGlo, confirmation (AID 1900); type: functional, organism-based
[3] = ZM109 Env clade C HIV-1 fusion inhibitors, dose response, HeLa effector, CEM target cells, luciferase, cherry-pick (AID 652058); type: functional, cell-based
[4] = off-target signal loss in HeLa-CEM21 co-culture – HeLa F-luc CTL cells, cherry-picked, counter-screen for HIV-1 Env fusion inhibitor project, dose response (AID 652040); type: functional, cell-based;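 further: potency for signal decrease marking cytotoxic or nonspecific inhibition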
[5] = inhibitors of clade B AD8 Env fusion, dose response, cell-based, cherry-pick (AID 652062); type: functional;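 further: luciferase signal from cell-cell fusion driven by HIV-1 clade B AD8 Env; potency is for inhibitors of fusion seen as a drop in luminescence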
[6] = inhibitors of HIV Env-driven cell fusion, dose response, cherry-pick (AID 652057); type: functional, cell-based
[7] = target: Peroxisome proliferator-activated receptor gamma/Nuclear receptor coactivator 3 (Homo sapiens, UniProt P37231); assay: (§1) TR-FRET dose response biochemical High Throughput Screening assay for agonists of the steroid receptor coactivator 3 (SRC-3) recruitment by the peroxisome proliferator-activated receptor gamma (PPAR gamma): non-selective agonists. [Related pubchem assays: 1301 (Confirmation screen.), 1048 (Primary screen.)]; type: functional
[8] = target: Peroxisome proliferator-activated receptor gamma/Nuclear receptor coactivator 1 (Homo sapiens, UniProt P37231); assay: as §1, with “1 (SRC-1)” for “3 (SRC-3)”, “assays (depositor defined):AID1300, AID1808, AID504735, AID631]” for “assays: 1301 (Confirmation screen.), 1048 (Primary screen.)]”; type: protein assay
[9] = target: Peroxisome proliferator-activated receptor gamma/Nuclear receptor coactivator 2 (Homo sapiens, UniProt P37231); assay: TR-FRET dose response biochemical High Throughput Screening assay for agonists of the steroid receptor coactivator 2 (SRC-2) recruitment by the peroxisome proliferator-activated receptor gamma (PPAR gamma): non-selective agonists. [Related pubchem assays: 1297, 1032 ]; type: functional
[10] = target: DNA dC->dU-editing enzyme APOBEC-3G (Homo sapiens, UniProt Q9HC16); type: functional;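 further: Dose-response counterscreen measuring inhibition of APOBEC3G DNA deaminase activity, run while confirming APOBEC3A inhibitors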
[11] = target: DNA dC->dU-editing enzyme APOBEC-3A (Homo sapiens, UniProt P31941); assay: Dose Response confirmation of small molecule APOBEC3A DNA Deaminase Inhibitors via a fluorescence-based single-stranded DNA deaminase assay. [Related pubchem assays (depositor defined):AID493011, AID493024]; type: functional
Cytochrome P450 3A4 = Cytochrome P450 3A4 (Homo sapiens, UniProt P08684);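 further: CYP3A4 tested as one member of a cytochrome P450 panel screen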
Cytochrome P450 1A2 = target: T2, Cytochrome P450 1A2 (Homo sapiens, UniProt P05177);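 further: PubChem cytochrome P450 panel assay, CYP1A2 panel member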
T2 sequence (P05177 whole entry): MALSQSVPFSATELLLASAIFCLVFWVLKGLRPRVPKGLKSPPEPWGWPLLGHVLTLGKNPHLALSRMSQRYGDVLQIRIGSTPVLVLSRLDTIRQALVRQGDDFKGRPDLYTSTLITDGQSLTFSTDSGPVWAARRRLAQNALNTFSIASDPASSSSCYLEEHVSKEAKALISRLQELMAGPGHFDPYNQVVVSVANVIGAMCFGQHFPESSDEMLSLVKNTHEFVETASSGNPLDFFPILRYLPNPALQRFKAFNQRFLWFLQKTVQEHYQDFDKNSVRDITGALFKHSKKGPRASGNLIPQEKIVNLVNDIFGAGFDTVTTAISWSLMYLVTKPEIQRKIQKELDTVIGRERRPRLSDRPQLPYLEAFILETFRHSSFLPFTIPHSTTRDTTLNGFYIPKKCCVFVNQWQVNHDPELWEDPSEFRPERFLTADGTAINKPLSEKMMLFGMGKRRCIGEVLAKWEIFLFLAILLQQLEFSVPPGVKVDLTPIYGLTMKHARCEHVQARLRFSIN

[12] = target: T3, Long-chain-fatty-acid--AMP ligase FadD28 (Mycobacterium tuberculosis, UniProt P9WQ59); assay: Fluorescence polarization aasay to screen for inhibitors that compete for the binding of FadD28 to a bisubstrate Measured in Biochemical System Using Plate Reader - 2147-01_Inhibitor_Dose_CherryPick_Activity.; type: functional, Mycobacterium tuberculosis H37Rv
T3 sequence (P9WQ59 whole entry): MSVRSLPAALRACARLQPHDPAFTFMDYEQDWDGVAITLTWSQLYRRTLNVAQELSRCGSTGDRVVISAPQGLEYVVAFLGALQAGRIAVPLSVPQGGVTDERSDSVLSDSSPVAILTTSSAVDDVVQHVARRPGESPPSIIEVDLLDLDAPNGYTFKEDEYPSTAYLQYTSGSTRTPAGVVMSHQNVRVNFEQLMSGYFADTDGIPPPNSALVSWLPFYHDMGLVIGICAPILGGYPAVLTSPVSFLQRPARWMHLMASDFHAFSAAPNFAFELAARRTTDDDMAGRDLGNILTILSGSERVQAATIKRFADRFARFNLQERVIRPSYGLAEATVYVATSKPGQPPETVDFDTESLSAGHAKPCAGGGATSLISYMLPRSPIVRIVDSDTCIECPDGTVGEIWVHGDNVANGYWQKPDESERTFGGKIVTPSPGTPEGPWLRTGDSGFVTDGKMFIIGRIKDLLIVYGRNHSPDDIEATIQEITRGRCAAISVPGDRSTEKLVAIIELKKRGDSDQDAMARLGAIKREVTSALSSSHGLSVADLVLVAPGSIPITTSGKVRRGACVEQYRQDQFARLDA

[13] = target: T4, Heat shock factor protein 1 (Mus musculus, UniProt P38532); assay: HSF1 potentiators in luciferase reporter cells, confirmation, cell-based, NIH3T3, luminescence, dose retest (AID 435004); type: functional;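 further: stress induced by proteasome inhibitor MG132 added 30 min after compound; luciferase reporter driven by HSF1 response element in NIH3T3 cells; actives raise luminescence as potentiators of the MG132 stress response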
T4 sequence (P38532 whole entry): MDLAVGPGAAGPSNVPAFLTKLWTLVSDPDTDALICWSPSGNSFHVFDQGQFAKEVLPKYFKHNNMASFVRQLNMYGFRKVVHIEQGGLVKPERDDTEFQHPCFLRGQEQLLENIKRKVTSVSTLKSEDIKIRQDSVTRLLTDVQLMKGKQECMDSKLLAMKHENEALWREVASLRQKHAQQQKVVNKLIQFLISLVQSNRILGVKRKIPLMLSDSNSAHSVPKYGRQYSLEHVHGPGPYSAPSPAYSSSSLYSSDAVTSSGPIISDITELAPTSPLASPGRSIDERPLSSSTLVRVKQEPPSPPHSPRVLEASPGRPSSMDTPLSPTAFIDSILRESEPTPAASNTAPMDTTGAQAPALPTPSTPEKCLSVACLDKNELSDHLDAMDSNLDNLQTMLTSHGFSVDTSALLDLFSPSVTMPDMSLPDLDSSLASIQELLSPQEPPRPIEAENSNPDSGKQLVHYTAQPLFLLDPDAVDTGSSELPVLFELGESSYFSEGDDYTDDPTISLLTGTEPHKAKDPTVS

[14] = cytotoxicity toward NIH3T3 fibroblasts, dose response, counter-screen, cell-based, ATP luminescence, mouse fibroblasts (AID 2010); type: functional;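 further: cells exposed to compound for about 90 hours before reading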
INS1 = assay: beta cell apoptosis inhibitors, cytokine rescue, dose response, luminescence, retest (AID 449756); type: functional, cell-based; settings: Rattus norvegicus;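 further: cell death triggered by IL-1 beta plus TNF-alpha plus IFN-gamma mixture; protective hits raise ATP signal compared with cytokine alone wells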
[15] = inhibitors of intracellular T. cruzi replication, confirmation, NIH3T3 host cells, beta-gal luminescence (AID 2044); type: functional, cell-based;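 further: intracellular parasites grown in NIH/3T3 mouse fibroblasts as host cells; luminescent beta-galactosidase reporter signal from transgenic T. cruzi replicating inside host cells; inhibitors lower the luminescence signal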
cells = type: functional
[16] = target: T5, Calpain-2 catalytic subunit (Sus scrofa, UniProt P43367); assay: pig calpain II inhibitor potency, dose response, biochemical, fluorogenic peptide substrate (AID 1420); type: functional
T5 sequence (P43367 whole entry): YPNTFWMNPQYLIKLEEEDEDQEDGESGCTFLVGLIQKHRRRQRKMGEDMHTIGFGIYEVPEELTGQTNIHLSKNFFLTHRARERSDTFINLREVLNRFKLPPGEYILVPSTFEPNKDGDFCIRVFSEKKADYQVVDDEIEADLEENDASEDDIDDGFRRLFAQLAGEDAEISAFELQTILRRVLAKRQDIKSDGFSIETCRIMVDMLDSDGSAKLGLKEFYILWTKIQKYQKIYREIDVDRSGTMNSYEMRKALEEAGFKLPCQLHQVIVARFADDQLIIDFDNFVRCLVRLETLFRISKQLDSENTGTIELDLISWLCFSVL

Paired box protein Pax-8 = Paired box protein Pax-8 (Homo sapiens, UniProt Q06710); assay: inhibitors of PAX8-driven TPO luciferase reporter, dose response, RMG-I cells, cherry-pick (AID 687027); type: functional, cell-based;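 further: luciferase reporter driven by Pax8 target thyroperoxidase promoter measured by SteadyGlo luminescence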
Cytochrome P450 2D6 = Cytochrome P450 2D6 (Homo sapiens, UniProt P10635);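 further: CYP2D6 member of a cytochrome P450 panel assay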
Cytochrome P450 2C9 = Cytochrome P450 2C9 (Homo sapiens, UniProt P11712)
Chain of Cytochrome P450 2C9 (P11712 whole entry): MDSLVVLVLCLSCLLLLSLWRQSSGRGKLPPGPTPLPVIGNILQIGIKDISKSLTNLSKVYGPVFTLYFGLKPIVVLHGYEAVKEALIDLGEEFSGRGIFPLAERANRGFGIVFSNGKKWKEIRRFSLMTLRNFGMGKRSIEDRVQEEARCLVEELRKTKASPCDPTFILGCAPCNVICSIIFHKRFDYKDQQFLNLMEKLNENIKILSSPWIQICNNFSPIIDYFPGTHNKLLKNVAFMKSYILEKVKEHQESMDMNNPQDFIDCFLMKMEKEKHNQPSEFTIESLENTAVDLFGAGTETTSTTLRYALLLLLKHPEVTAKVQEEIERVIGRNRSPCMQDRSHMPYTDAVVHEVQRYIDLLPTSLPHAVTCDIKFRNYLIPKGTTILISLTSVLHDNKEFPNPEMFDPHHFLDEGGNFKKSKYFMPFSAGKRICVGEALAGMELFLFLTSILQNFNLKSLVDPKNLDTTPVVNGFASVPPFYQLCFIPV

Chain of Cytochrome P450 3A4 (P08684 whole entry): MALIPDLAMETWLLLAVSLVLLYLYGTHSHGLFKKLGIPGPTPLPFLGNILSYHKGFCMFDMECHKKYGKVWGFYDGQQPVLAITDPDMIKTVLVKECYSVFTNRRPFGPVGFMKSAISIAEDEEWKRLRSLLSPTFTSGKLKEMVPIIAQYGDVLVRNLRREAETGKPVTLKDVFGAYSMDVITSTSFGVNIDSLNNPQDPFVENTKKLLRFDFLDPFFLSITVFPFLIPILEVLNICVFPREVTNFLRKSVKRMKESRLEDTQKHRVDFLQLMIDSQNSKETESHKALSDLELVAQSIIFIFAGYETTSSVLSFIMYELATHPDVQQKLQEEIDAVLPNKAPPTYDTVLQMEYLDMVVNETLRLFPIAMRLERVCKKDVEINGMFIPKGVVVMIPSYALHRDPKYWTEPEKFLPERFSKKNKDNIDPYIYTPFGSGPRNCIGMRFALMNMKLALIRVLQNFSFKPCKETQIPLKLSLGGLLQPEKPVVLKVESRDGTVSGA
Chain of Voltage-dependent T-type calcium channel subunit alpha-1H (O95180 whole entry): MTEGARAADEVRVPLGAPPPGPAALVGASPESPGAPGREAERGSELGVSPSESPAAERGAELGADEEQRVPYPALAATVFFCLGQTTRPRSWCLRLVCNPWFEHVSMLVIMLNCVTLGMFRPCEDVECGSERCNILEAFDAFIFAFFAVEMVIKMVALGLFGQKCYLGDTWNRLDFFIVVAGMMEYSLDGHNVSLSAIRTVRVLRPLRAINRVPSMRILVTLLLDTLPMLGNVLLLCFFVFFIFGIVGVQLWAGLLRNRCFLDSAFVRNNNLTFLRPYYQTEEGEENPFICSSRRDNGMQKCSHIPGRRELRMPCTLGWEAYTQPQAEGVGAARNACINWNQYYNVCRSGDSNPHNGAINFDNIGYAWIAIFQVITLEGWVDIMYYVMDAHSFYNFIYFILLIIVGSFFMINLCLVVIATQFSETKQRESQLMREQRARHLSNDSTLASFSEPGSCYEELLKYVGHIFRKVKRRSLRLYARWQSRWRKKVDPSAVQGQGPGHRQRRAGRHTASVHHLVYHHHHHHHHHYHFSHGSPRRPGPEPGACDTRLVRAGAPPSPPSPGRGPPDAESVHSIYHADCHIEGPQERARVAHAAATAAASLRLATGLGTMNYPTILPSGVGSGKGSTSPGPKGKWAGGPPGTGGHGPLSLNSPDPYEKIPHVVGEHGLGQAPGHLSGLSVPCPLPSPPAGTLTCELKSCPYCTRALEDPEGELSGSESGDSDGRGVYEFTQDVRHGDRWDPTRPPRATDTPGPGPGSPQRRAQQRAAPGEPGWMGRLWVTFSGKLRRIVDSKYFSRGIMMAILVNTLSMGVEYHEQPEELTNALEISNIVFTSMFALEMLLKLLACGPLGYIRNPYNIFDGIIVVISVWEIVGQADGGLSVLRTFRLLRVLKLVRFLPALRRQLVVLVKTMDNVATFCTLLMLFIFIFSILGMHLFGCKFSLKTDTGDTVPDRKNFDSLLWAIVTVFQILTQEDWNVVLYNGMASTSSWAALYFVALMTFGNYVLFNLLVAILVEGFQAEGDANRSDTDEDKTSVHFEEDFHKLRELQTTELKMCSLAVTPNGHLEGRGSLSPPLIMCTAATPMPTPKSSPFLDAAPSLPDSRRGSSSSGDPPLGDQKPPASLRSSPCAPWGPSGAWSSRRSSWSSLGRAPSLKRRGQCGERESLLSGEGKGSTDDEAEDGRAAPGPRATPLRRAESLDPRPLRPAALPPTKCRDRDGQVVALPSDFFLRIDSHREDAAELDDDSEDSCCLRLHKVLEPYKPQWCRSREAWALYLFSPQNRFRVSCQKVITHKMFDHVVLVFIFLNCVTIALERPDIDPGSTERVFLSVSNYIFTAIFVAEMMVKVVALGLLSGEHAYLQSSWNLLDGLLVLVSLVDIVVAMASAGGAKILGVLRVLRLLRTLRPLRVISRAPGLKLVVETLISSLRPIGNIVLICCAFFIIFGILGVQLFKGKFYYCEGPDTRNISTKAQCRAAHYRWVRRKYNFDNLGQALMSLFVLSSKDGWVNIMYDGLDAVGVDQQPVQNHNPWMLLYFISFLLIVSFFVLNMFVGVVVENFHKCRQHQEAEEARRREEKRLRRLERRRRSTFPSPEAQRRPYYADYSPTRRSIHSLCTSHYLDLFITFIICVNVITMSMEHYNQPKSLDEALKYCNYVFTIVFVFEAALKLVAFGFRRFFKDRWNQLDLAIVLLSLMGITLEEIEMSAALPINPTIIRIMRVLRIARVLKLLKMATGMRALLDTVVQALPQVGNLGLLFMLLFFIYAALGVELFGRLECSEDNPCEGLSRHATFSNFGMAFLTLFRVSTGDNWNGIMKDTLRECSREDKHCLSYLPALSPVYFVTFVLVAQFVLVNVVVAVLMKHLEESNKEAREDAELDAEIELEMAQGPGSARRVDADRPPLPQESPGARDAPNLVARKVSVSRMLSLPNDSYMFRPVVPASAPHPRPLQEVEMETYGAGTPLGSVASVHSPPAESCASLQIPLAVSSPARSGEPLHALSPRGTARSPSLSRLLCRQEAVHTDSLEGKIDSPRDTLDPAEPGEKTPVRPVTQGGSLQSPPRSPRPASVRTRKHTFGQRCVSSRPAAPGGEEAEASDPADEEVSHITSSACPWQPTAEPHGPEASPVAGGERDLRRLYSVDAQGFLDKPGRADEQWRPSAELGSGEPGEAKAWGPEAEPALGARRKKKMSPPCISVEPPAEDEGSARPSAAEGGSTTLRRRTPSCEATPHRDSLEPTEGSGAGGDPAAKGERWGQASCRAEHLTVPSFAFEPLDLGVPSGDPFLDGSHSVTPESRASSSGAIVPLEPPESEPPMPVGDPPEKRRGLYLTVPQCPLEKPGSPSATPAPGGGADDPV
Chain of DNA dC->dU-editing enzyme APOBEC-3G (Q9HC16 whole entry): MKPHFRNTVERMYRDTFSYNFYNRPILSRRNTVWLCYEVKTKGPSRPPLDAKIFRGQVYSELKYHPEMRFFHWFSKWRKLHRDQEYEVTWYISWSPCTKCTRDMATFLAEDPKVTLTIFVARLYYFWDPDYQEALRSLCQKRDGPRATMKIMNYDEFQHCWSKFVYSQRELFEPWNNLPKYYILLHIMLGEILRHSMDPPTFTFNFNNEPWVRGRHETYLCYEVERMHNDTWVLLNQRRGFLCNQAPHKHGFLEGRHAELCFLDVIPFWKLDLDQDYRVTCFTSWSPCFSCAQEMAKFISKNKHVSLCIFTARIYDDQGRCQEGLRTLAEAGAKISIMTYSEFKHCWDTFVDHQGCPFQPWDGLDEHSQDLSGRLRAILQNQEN
Chain of DNA dC->dU-editing enzyme APOBEC-3A (P31941 whole entry): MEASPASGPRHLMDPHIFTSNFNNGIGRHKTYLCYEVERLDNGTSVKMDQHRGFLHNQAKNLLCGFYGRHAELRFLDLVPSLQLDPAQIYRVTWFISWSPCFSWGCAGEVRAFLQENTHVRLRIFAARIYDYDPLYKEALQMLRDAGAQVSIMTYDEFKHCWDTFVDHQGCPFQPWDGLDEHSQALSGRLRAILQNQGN
Chain of Cytochrome P450 2D6 (P10635 whole entry): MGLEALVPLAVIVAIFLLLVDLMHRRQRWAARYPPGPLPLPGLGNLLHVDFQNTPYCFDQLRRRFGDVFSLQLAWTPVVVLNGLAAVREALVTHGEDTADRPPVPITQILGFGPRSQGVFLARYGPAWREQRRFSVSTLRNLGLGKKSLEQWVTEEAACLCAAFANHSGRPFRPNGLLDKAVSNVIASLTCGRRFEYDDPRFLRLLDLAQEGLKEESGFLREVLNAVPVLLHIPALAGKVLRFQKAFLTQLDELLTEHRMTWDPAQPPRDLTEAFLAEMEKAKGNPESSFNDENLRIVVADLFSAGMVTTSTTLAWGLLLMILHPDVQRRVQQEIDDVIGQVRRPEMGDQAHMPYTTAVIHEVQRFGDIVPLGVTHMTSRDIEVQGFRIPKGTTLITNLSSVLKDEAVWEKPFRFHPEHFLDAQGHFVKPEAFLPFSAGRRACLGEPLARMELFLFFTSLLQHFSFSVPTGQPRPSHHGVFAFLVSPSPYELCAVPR
Chain of Paired box protein Pax-8 (Q06710 whole entry): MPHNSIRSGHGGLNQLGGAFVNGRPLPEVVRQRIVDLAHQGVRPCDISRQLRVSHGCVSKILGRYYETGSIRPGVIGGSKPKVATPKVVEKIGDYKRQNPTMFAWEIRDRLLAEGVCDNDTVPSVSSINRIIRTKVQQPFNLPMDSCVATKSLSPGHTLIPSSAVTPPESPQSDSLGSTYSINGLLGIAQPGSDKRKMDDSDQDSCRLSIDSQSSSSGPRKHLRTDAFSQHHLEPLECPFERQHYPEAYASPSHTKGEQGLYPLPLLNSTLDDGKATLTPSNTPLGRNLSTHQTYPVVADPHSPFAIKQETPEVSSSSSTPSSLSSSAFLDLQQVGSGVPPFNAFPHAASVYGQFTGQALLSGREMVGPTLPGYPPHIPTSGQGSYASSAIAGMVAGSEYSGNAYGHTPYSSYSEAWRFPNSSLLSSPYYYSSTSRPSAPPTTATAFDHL

O=C(CN1CCc2ccccc2C1)Nc1ccccc1N1CCCCCC1
EC50 [1]: 8.39 µM (active) | EC50 (Streptokinase A): 13 µM (active) | EC50 (Streptococcus): 13.3 µM (active) | EC50 [2]: 6.54 µM (active)

Cc1ccc(N2C(=O)N3[C@H](c4cccc(C)c4)[C@@H]4C(=O)N(Cc5ccccc5)C(=O)[C@@H]4[C@]3(C)C2=O)cc1
AC50 [3]: 1.2 µM (active) | AC50 [4]: 3.88 µM (active) | AC50 [5]: 2.33 µM (active) | AC50 [6]: 3.36 µM (active)

O=C(Nc1ccc(N2CCN(C(=O)c3ccccc3)CC2)c(Cl)c1)c1cccnc1
EC50 (Streptokinase A): > 150 µM (not active) | AC50 [4]: 20.5 µM (active) | AC50 [5]: 12.6 µM (active) | EC50 (Streptococcus): 14.7 µM (active) | EC50 [2]: 12.4 µM (active)

Cc1ccc2cc(C#N)c(NCCNC(=O)C3CC3)nc2c1C
AC50 [3]: 4.47 µM (active) | AC50 [4]: 2.96 µM (active) | AC50 [5]: 6.25 µM (active) | AC50 [6]: 4.5 µM (active)

O=C(CCC1N=C2c3ccccc3N=C(SCc3ccccc3Cl)N2C1=O)NCc1ccco1 (stereo unspecified)
EC50 [1]: 14 µM (active)

N#Cc1cc2c(nc1SCc1ccccc1)CCCCC2
EC50 [7]: > 79.4 µM (not active) | EC50 [8]: > 8.82 µM (inactive) | EC50 [9]: 12.7 µM (not active)

O=C(Nc1nnc(-c2ccc3c(c2)CCCC3)o1)C1COc2ccccc2O1 (stereo unspecified)
EC50 [1]: 1.37 µM (active)

O=C(CSc1nnnn1-c1ccccc1)N1CCc2ccccc21
IC50 [10]: 4.32 µM (active) | IC50 [11]: 6.17 µM (active)

Cc1ccc(C)c(CS(=O)(=O)c2cn(CC(=O)N3CCC(C)CC3)c3ccccc23)c1
AC50 [3]: 3.03 µM (active) | AC50 [4]: 3.13 µM (active) | AC50 [5]: 2.04 µM (active) | AC50 [6]: 2.82 µM (active)

O=C(c1cccc(F)c1)N1CCC2(CC1)CCN(c1cccc(-c3ccccc3)c1)CC2
AC50 (Cytochrome P450 3A4): inconclusive | AC50 (Cytochrome P450 1A2): 20 µM (inconclusive)

O=C(NCCSCc1ccccc1)c1ccc(Cl)c(S(=O)(=O)N2CCOCC2)c1
AC50 [12]: > 100 µM (inactive)

N=c1c2c(-c3ccccc3)c(-c3ccccc3)n(Cc3ccco3)c2ncn1CCCN1CCOCC1
EC50 [13]: > 260 µM (inactive) | AC50 [12]: 77.3 µM (active) | EC50 [14]: > 60 µM (not active) | AC50 (INS1): 14.3 µM (active) | EC50 [15]: 1.49 µM (active)

COc1cccc(OCC(O)CN2CCC(Cc3ccccc3)CC2)c1 (stereo unspecified)
EC50 [1]: 4.62 µM (active)

CC(=O)c1ccc(S(=O)(=O)N2Cc3ccccc3CC2C(=O)O)cc1 (stereo unspecified)
IC50 [10]: 43.7 µM (active) | IC50 [11]: 14 µM (active)

CC(C)(C)c1ccc(OCCC(=O)Nc2cccc(S(=O)(=O)N3CCOCC3)c2)cc1
AC50 [4]: 48.2 µM (active) | AC50 [5]: 53.1 µM (active) | AC50 [6]: 22.2 µM (active)

COc1ccc2[nH]c(O)c(N=O)c2c1
IC50 [10]: 4.41 µM (active) | IC50 [11]: 2.64 µM (active)

Cc1ccc(CNC(=O)C(Cc2ccccc2)NS(=O)(=O)c2ccc(Br)s2)cc1 (stereo unspecified)
AC50 [12]: 6.7 µM (active)

CN1CCN(c2ccc(Cl)cc2NC(=O)CC2OC(=O)c3ccccc32)CC1 (stereo unspecified)
IC50 [10]: 2.9 µM (active) | IC50 [11]: 3.24 µM (active)

CC(/C=C(\O)c1ccncc1)=N\c1ccccc1O
EC50 [1]: 3.26 µM (active) | IC50 (cells): 3.1 µM (active)

COc1cc(/C=N/NS(=O)(=O)c2ccc(C)cc2)ccc1OCc1ccc(C(=O)O)cc1
IC50 [16]: > 50 µM (not active) | AC50 [3]: 16.1 µM (active) | AC50 [4]: 3.18 µM (active) | AC50 [5]: 8.31 µM (active) | AC50 [6]: 2.5 µM (active) | AC50 (Paired box protein Pax-8): 23.9 µM (active)

Cc1c(C2CCN(CCc3ccccc3)CC2)noc1-c1ccc(Cl)cc1
AC50 (Cytochrome P450 2D6): 1.58 µM (inconclusive) | AC50 (Cytochrome P450 3A4): inconclusive | AC50 (Cytochrome P450 1A2): 25.1 µM (inconclusive)

Cc1cccc(C)c1NC(=O)CN1CCN(CCCC(c2ccc(F)cc2)c2ccc(F)cc2)CC1 [LIDOFLAZINE]
AC50 (Cytochrome P450 2C9): 15.8 µM (inconclusive) | AC50 (Cytochrome P450 3A4): inconclusive | AC50 (Cytochrome P450 1A2): 15.8 µM (inconclusive)
